Data on 10 molecules can be found in patent publication US20110118343A1, “Antitumoral Macrolides” (Pharma Mar, S. A., priority 2008, published 2011).

In brackets after ≈: the same amount, converted by molar mass. Where two headings read alike, the source gives them in different places.

For one data set, the system named is P388 leukemia. The conditions noted are these: cited from earlier work; for antitumor activity / toxicity in antitumoral study: P388 leukemia cell line in CDF1 mice.
Data set [1] relates to A549. As to the kind of experiment: SRB colorimetric cytotoxicity assay, A549. The data set is classed as cell-based. The conditions noted are these: for TGI / GI50: A549, 72 hours treatment, SRB; for TGI: total cell growth inhibition; for CC50 / GI50: Homo sapiens; for CC50: A549, 72 h, read-out: LC50. The text has this:
(§1) The aim of this assay is to evaluate the in vitro cytostatic (ability to delay or arrest tumor cell growth) or cytotoxic (ability to kill tumor cells) activity of the samples being tested.
(§2) A colorimetric assay, using sulforhodamine B (SRB) reaction has been adapted to provide a quantitative measurement of cell growth and viability (following the technique described by Skehan et al. J. Natl. Cancer Inst. 1990, 82, 1107-1112).
(§3) This form of assay employs SBS-standard 96-well cell culture microplates (Faircloth et al. Methods in Cell Science, 1988, 11(4), 201-205; Mosmann et al, Journal of Immunological Methods, 1983, 65(1-2), 55-63). All the cell lines used in this study were obtained from the American Type Culture Collection (ATCC) and derive from different types of human cancer.
(§4) Cells were maintained in Dulbecco's Modified Eagle Medium (DMEM) supplemented with 10% Fetal Bovine Serum (FBS), 2 mM L-glutamine, 100 U/mL penicillin and 100 U/mL streptomycin at 37° C., 5% CO2 and 98% humidity. For the experiments, cells were harvested from subconfluent cultures using trypsinization and resuspended in fresh medium before counting and plating.
(§5) Cells were seeded in 96 well microtiter plates, at 5×10^3-7.5×10^3 cells per well in aliquots of 150 μL, and allowed to attach to the plate surface for 18 hours (overnight) in drug free medium. After that, one control (untreated) plate of each cell line was fixed (as described below) and used for time zero reference value. Culture plates were then treated with test compounds (50 μL aliquots of 4× stock solutions in complete culture medium plus 4% DMSO) using ten serial dilutions (concentrations ranging from 10 to 0.00262 μg/mL) and triplicate cultures (1% final concentration of DMSO). After 72 hours treatment, the antitumor effect was measured by using the SRB methodology: Briefly, cells were washed twice with PBS, fixed for 15 min in 1% glutaraldehyde solution at room temperature, rinsed twice in PBS, and stained in 0.4% SRB solution for 30 min at room temperature. Cells were then rinsed several times with 1% acetic acid solution and air-dried at room temperature. SRB was then extracted in 10 mM trizma base solution and the absorbance measured in an automated spectrophotometric plate reader at 490 nm. Effects on cell growth and survival were estimated by applying the NCI algorithm (Boyd M R and Paull K D. Drug Dev. Res. 1995, 34, 91-104).
(§6) Using the mean±SD of triplicate cultures, a dose-response curve was automatically generated using nonlinear regression analysis. Three reference parameters were calculated (NCI algorithm) by automatic interpolation: GI50=compound concentration that produces 50% cell growth inhibition, as compared to control cultures; TGI=compound concentration that produces total cell growth inhibition (cytostatic effect), as compared to control cultures, and LC50=compound concentration that produces 50% net cell killing (cytotoxic effect).

The subject of data set [2] is MDA-MB-231. Briefly: SRB colorimetric cytotoxicity assay, MDA-MB-231. The data set is classed as cell-based. The conditions noted are these: for LC50 (concentration killing 50% of cells) / GI50: Homo sapiens; for LC50 (concentration killing 50% of cells): MDA-MB-231, 72 h, read-out: LC50; for GI50 / TGI: MDA-MB-231, 72 hours treatment, SRB; for TGI: total cell growth inhibition.
Excerpt: as §1, §2, §3, §4, §5, §6

For data set [3], the system named is HT29. As to the kind of experiment: SRB colorimetric cytotoxicity assay, HT29. The conditions noted are these: for TGI / GI50: HT29, 72 hours treatment, SRB; for TGI: total cell growth inhibition; for CC50 / GI50: Homo sapiens; for CC50: HT-29, 72 h, read-out: LC50; for GI50: HT-29. Type of data set: cell-based.
Excerpt: as §1, §2, §3, §4, §5, §6

A further data set deals with L1210. The conditions noted are these: L1210 cell line; cited from earlier work.
Another data set relates to KB cells. The conditions noted are these: KB cell line; cited from earlier work.
Data set [4] has as its system HT29. The conditions noted are these: cited from earlier work.
Data set [5] concerns MDA-MB-231. The conditions noted are these: cited from earlier work.
The subject of data set [6] is A549. The conditions noted are these: cited from earlier work.

In the case of `CO[C@H]1CC(CC[C@H](C)C2OC(=O)/C=C/C(C)=C/CC(O)C[C@@H]3C=CCC(C[C@H](OC)[C@@H](C)[C@@H](O)C[C@@H](O)[C@H](C)[C@H](O)[C@@H](C)[C@H]([C@@H](C)CC[C@H]4C[C@H](OC)C[C@H](C)O4)OC(=O)/C=C/C(C)=C/C[C@H](O)C[C@@H]4C=CCC(C[C@H](OC)[C@@H](C)[C@@H](O)C[C@@H](O)[C@H](C)[C@H](O)[C@H]2C)O4)O3)O[C@@H](C)C1` (single isomer, unassigned) [isomer 11], in the data set with P388 leukemia, the antitumor activity result is listed as “did not show promising antitumor activity” and the “toxicity in antitumoral study” value is “toxic”.

The GI50 is the concentration at which growth is held to half of that of the control. With `COCC1C/C(C)=C\C2OC(=O)C/C(=C\C=C\C(O)CC(O)C(C)C(OC)CCC(C)C(OC)CC3CC(=CC(=O)O3)CC(=O)N/C=C\C=C\CC(CC(=O)OC)CC(O)C/C(C)=C\C=C\C(OC)CC(=O)O1)C2C` (stereo not shown) [Nanomolide C], in the data set with A549 [1], the TGI came to 2.47E−08 Molar, the CC50 is 49.3 nM and halving of growth (GI50) required 14.2 nM. Further, in the data set on MDA-MB-231 [2], the LC50 (concentration killing 50% of cells) is 22.8 nM, it took 15.2 nM to inhibit growth by half (GI50) and the TGI amounted to 1.90E−08 Molar. Further, in the data set with HT29 [3], the TGI is 1.52E−08 Molar, the CC50 was determined as 21.8 nM and it took 12.3 nM to inhibit growth by half (GI50).

`COCC1C/C(C)=C\C2OC(=O)C=C(C/C=C/C(O)CC(O)C(C)C(OC)CCC(C)C(OC)CC3CC(=CC(=O)O3)CC(=O)N/C=C\C=C\CC3CC(=O)OC(C/C(C)=C\C=C\C(OC)CC(=O)O1)C3)C2C` (stereo not shown) [Nanomolide B]: in the data set with A549 [1], the TGI came to 1.27E−07 Molar, the CC50 was 235 nM and the GI50 came to 73.4 nM. Further, in the data set on MDA-MB-231 [2], the LC50 (concentration killing 50% of cells) turned out to be 108 nM, it took 94.9 nM to inhibit growth by half (GI50) and the TGI was determined as 9.78E−08 Molar. In the data set with HT29 [3], the TGI was 9.29E−08 Molar, the CC50 was determined as 97.8 nM and the GI50 is 88 nM.

As for `CO[C@H]1CC(CC[C@H](C)[C@H](O)[C@H](C)[C@H]2OC(=O)/C=C/C(C)=C/C[C@H](O)C[C@@H]3C=CC[C@@H](C[C@H](OC)[C@@H](C)[C@@H](O)C[C@@H](O)[C@H](C)[C@@H]([C@@H](C)[C@@H](O)[C@@H](C)CC[C@H]4C[C@H](OC)C[C@H](C)O4)OC(=O)/C=C/C(C)=C/C[C@H](O)C[C@@H]4C=CC[C@@H](C[C@H](OC)[C@@H](C)[C@@H](O)C[C@@H](O)[C@@H]2C)O4)O3)O[C@@H](C)C1` (stereo partly shown) [Swinholide A], the “IC50 (cytotoxicity)” value with L1210 is 0.03 µg/mL (≈ 0.0216 µM). Also, the “IC50 (cytotoxicity)” value with KB cells is 0.04 µg/mL (≈ 0.0288 µM). Moreover, in the data set on P388 leukemia, the antitumor activity result was “did not show promising antitumor activity” and the “toxicity in antitumoral study” value was “toxic”.

Regarding `COCC1C/C(C)=C\C2OC(=O)C=C(C/C=C/C(O)CC(O)C(C)C(OC)CCC(C)C(OC)CC3CC(=CC(=O)O3)CC(=O)N/C=C\C=C\CC(CC(=O)OC)CC(O)C/C(C)=C\C=C\C(OC)CC(=O)O1)C2C` (stereo not shown) [Nanomolide A], in the data set on A549 [1], the TGI was 1.52E−08 Molar, the CC50 came out at 23.7 nM and the GI50 turned out to be 10.4 nM. Moreover, in the data set on MDA-MB-231 [2], the LC50 (concentration killing 50% of cells) came to 45.5 nM, the GI50 is 8.35 nM and the TGI was 1.71E−08 Molar. Also, in the data set on HT29 [3], the TGI turned out to be 1.04E−08 Molar, the CC50 stood at 16.1 nM and growth was halved (GI50) at 7.59 nM.

In general, T/C refers to the ratio of treated to control. In the case of `COC1CC(C)OC(CCC(C)C(O)C(C)C2OC(=O)/C(C)=C/CC(O)CC3C=CCC(CC(OC)C(C)C(O)CC(O)C(C)C(C(C)C(O)C(C)CCC4CC(OC)CC(C)O4)OC(=O)/C(C)=C/CC(O)CC4C=CCC(CC(OC)C(C)C(O)CC(O)C2C)O4)O3)C1` (stereo not shown) [Misakinolide A], the “IC50 (cytotoxicity)” value in the data set on L1210 is 0.035 µg/mL (≈ 0.0262 µM). Also, in the data set with P388 leukemia (dose of 0.1 mg/kg (mouse) against P388 leukemia), the T/C was 140%.

Consider `COC1CC(C)OC(CCC(C)C(O)C(C)C2OC(=O)/C=C\C(C)=C\CC(O)CC3C=CCC(CC(OC)C(C)C(O)CC(O)C(C)C(C(C)C(O)C(C)CCC4CC(O)CC(C)O4)OC(=O)/C=C\C(C)=C\CC(O)CC4C=CCC(CC(OC)C(C)C(O)CC(O)C2C)O4)O3)C1` (stereo not shown) [Swinholide C], for which the entries for the “IC50 (cytotoxicity)” value with L1210 and with KB cells were 0.14 µg/mL (≈ 0.102 µM) and 0.05 µg/mL (≈ 0.0363 µM), respectively.

With `CO[C@H]1CC(CC[C@H](C)[C@H](O)[C@H](C)C2OC(=O)/C=C/C(C)=C/C[C@H](O)C[C@@H]3C=CC[C@@H](C[C@H](OC)[C@@H](C)[C@@H](O)C[C@@H](O)[C@H](C)[C@H](O)[C@@H](C)[C@H]([C@@H](C)CC[C@H]4C[C@H](OC)C[C@H](C)O4)OC(=O)/C=C/C(C)=C/C[C@H](O)C[C@@H]4C=CCC(C[C@H](OC)[C@@H](C)[C@@H](O)C[C@@H](O)[C@@H]2C)O4)O3)O[C@@H](C)C1` (stereo partly shown) [isoswinholide A], the “IC50 (cytotoxicity)” value in the data set on L1210 is 1.35 µg/mL (≈ 0.971 µM). The “IC50 (cytotoxicity)” value in the data set with KB cells was 1.1 µg/mL (≈ 0.791 µM). Further, in the data set on P388 leukemia, the antitumor activity entry is “did not show promising antitumor activity” and the “toxicity in antitumoral study” value is on record as “toxic”.

As to `COC1CC(C)OC(CCC(C)C(O)C(C)C2OC(=O)/C=C/C(C)=C/CC(O)CC3C=CCC(CC(OC)C(C)C(O)CC(O)C(C)C(C(C)C(O)C(C)CCC4CC(OC)CC(C)O4)OC(=O)/C(C)=C/CC(O)CC4C=CCC(CC(OC)C(C)C(O)CC(O)C2C)O4)O3)C1` (stereo not shown) [compound a], the GI50 was 338 nM with HT29 [4], 808 nM in the data set with MDA-MB-231 [5] and 228 nM in the data set on A549 [6].

For Swinholide B, the figures for the “IC50 (cytotoxicity)” value in the data set with L1210 and with KB cells were 0.30 µg/mL and 0.04 µg/mL, respectively.
